Source: patent US9458153B2, “Dihydroquinolizinones for the treatment and prophylaxis of hepatitis B virus infection” (Hoffmann-La Roche Inc., priority 2014, dated 2016)

Test system: HBsAg
Experiment: HBsAg assay (chemiluminescence immunoassay of secreted HBsAg in HepG2.2.15 culture supernatant)
Assay type: cell-based, HBV
Conditions: HepG2.2.15 cells, CLIA kit
Method: HepG2.2.15 cells (Acs et al. Proc Natl Acad Sci USA, 84, (1987), 4641-4), a constitutively HBV-expressing cell line were cultured in DMEM+Glutamax-I medium (Invitrogen, Carlsbad, Calif., USA), supplemented with 10% fetal bovine serum (Invitrogen) and G418 (Invitrogen) at a final concentration of 200 mg/L and maintained in 5% CO2 at 37° C.
HepG2.2.15 cells were seeded in duplicate into white, 96-well plates at 1.5×10^4 cells/well. The cells were treated with a three-fold serial dilution series of the compounds in DMSO. The final DMSO concentration in all wells was 1% and DMSO was used as no drug control.
The HBsAg chemiluminescence immunoassay (CLIA) kit (Autobio Diagnostics Co., Zhengzhou, China, Catalog number: CL0310-2) was used to measure the levels of secreted HBV antigens semi-quantitatively. For the detection 50 μL/well culture supernatant was used and HBsAg was quantified using HBsAg chemiluminescence immunoassay (CLIA) kit (Autobio Diagnostics Co., Zhengzhou, China, Catalog number: CL0310-2), 50 μL of the supernatant was transferred to the CLIA assay plate and 50 μL of enzyme conjugate reagent was added into each well. The plates were sealed and gently agitated for 1 hour at room temperature. The supernatant-enzyme-mixture was discarded and wells were washed 6 times with 300 μL of PBS. The residual liquid was removed by plating the CLIA plate right side down on absorbent tissue paper. 25 μL of substrates A and B were added to each well. Luminance was measured using a luminometer (Mithras LB 940 Multimode Microplate Reader) after 10 minutes incubation. Dose-response curves were generated and the IC50 value was extrapolated by using the E-WorkBook Suite (ID Business Solutions Ltd., Guildford, UK).
The compounds of the present invention were tested for their capacity to inhibit HBsAg as described herein.

[1] = Hepatitis B virus, HepG2.2.15, HBsAg secretion reduced by 50% vs no drug control
[2] = HBsAg secretion reduced by 50% vs no drug control

Row | SMILES | IC50 [1] | IC50 [2]
1 | CC[C@@H]1[C@@H](C)c2cc(OCCOC)c(Cl)cc2-c2cc(=O)c(C(=O)O)cn21 (relative stereo) [Example 212A, (6R*, 7S*)-10-chloro-6-ethyl-9-(2-methoxyethoxy)-7-methyl-2-oxo-6,7-dihydrobenzo[a]quinolizine-3-carboxylic acid] | 330 nM | 
2 | CC[C@@H]1[C@H](C)c2cc(OCCOC)c(Cl)cc2-c2cc(=O)c(C(=O)O)cn21 (relative stereo) [Example 212B, (6R*,7R*)-10-chloro-6-ethyl-9-(2-methoxyethoxy)-7-methyl-2-oxo-6,7-dihydrobenzo[a]quinolizine-3-carboxylic acid] | 29 nM | 
3 | CCC1Cc2cc(OCc3ccccc3)c(OC)cc2-c2cc(=O)c(C(=O)O)cn21 (single isomer, unassigned; (+)) [Example 9, (+)-9-benzyloxy-6-ethyl-10-methoxy-2-oxo-6,7-dihydrobenzo[a]quinolizine-3-carboxylic acid] |  | 15 nM
4 | CCC1Cc2cc(OCC(C)(C)CO)c(OC)cc2-c2cc(=O)c(C(=O)O)cn21 (single isomer, unassigned; (+)) [Example 23, (+)-6-ethyl-9-(3-hydroxy-2,2-dimethyl-propoxy)-10-methoxy-2-oxo-6,7-dihydrobenzo[a]quinolizine-3-carboxylic acid] |  | 12 nM
5 | CCC1Cc2cc(OCCOC)c(OC)cc2-c2cc(=O)c(C(=O)O)cn21 (single isomer, unassigned; (+)) [Example 28, (+)-6-ethyl-10-methoxy-9-(2-methoxyethoxy)-2-oxo-6,7-dihydrobenzo[a]quinolizine-3-carboxylic acid] |  | 29 nM
6 | CCC1Cc2cc(OCC3CC3)c(OC)cc2-c2cc(=O)c(C(=O)O)cn21 (single isomer, unassigned; (+)) [Example 31, (+)-9-(cyclopropylmethoxy)-6-ethyl-10-methoxy-2-oxo-6,7-dihydrobenzo[a]quinolizine-3-carboxylic acid] |  | 9 nM
7 | CCC1Cc2cc(OCC(C)C)c(OC)cc2-c2cc(=O)c(C(=O)O)cn21 (single isomer, unassigned; (+)) [Example 34, (+)-6-ethyl-9-isobutoxy-10-methoxy-2-oxo-6,7-dihydrobenzo[a]quinolizine-3-carboxylic acid] |  | 4 nM
8 | CCOc1cc2c(cc1OC)-c1cc(=O)c(C(=O)O)cn1C(CC)C2 (single isomer, unassigned; (+)) [Example 37, (+)-9-ethoxy-6-ethyl-10-methoxy-2-oxo-6,7-dihydrobenzo[a]quinolizine-3-carboxylic acid] |  | 8 nM
9 | CCC1Cc2cc(OCCCOC)c(OC)cc2-c2cc(=O)c(C(=O)O)cn21 (single isomer, unassigned; (+)) [Example 40, (+)-6-ethyl-10-methoxy-9-(3-methoxypropoxy)-2-oxo-6,7-dihydrobenzo[a]quinolizine-3-carboxylic acid] |  | 13 nM
10 | CCOCCOc1cc2c(cc1OC)-c1cc(=O)c(C(=O)O)cn1C(CC)C2 (single isomer, unassigned; (+)) [Example 43, (+)-9-(2-ethoxyethoxy)-6-ethyl-10-methoxy-2-oxo-6,7-dihydrobenzo[a]quinolizine-3-carboxylic acid] |  | 46 nM
11 | CCC1Cc2cc(OCC(F)F)c(OC)cc2-c2cc(=O)c(C(=O)O)cn21 (single isomer, unassigned; (+)) [Example 46, (+)-9-(2,2-difluoroethoxy)-6-ethyl-10-methoxy-2-oxo-6,7-dihydrobenzo[a]quinolizine-3-carboxylic acid] |  | 44 nM
12 | CCC1Cc2cc(OCC3CCOCC3)c(OC)cc2-c2cc(=O)c(C(=O)O)cn21 (single isomer, unassigned; (+)) [Example 49, (+)-6-ethyl-10-methoxy-2-oxo-9-(tetrahydropyran-4-ylmethoxy)-6,7-dihydrobenzo[a]quinolizine-3-carboxylic acid] |  | 15 nM
13 | COc1cc2c(cc1OC)-c1cc(=O)c(C(=O)O)cn1C(C)C2 (single isomer, unassigned; (+)) [Example 67, (+)-9,10-dimethoxy-6-methyl-2-oxo-6,7-dihydrobenzo[a]quinolizine-3-carboxylic acid] |  | 380 nM
14 | CCC1Cc2cc(OC)c(C3CC3)cc2-c2cc(=O)c(C(=O)O)cn21 (single isomer, unassigned; (+)) [Example 90, (+)-10-cyclopropyl-6-ethyl-9-methoxy-2-oxo-6,7-dihydrobenzo[a]quinolizine-3-carboxylic acid] |  | 10 nM
15 | COc1cc2c(cc1OC)-c1cc(=O)c(C(=O)O)cn1C(CC(C)C)C2 (single isomer, unassigned; (+)) [Example 102, (+)-6-isobutyl-9,10-dimethoxy-2-oxo-6,7-dihydrobenzo[a]quinolizine-3-carboxylic acid] |  | 42 nM
16 | COCCOc1cc2c(cc1Cl)-c1cc(=O)c(C(=O)O)cn1C(CC(C)C)C2 (single isomer, unassigned; (+)) [Example 105, (+)-10-chloro-6-isobutyl-9-(2-methoxyethoxy)-2-oxo-6,7-dihydrobenzo[a]quinolizine-3-carboxylic acid] |  | 16 nM
17 | CCC1Cc2cc(OCc3ccccc3)c(C)cc2-c2cc(=O)c(C(=O)O)cn21 (single isomer, unassigned; (+)) [Example 116, (+)-9-benzyloxy-6-ethyl-10-methyl-2-oxo-6,7-dihydrobenzo[a]quinolizine-3-carboxylic acid] |  | 33 nM
18 | CCOc1cc2c(cc1Cl)-c1cc(=O)c(C(=O)O)cn1C(CC)C2 (single isomer, unassigned; (+)) [Example 118, (+)-10-chloro-9-ethoxy-6-ethyl-2-oxo-6,7-dihydrobenzo[a]quinolizine-3-carboxylic acid] |  | 4 nM
19 | COc1cc2c(cc1OCC(F)(F)F)CC(C(C)C)n1cc(C(=O)O)c(=O)cc1-2 (single isomer, unassigned; (+)) [Example 127, (+)-6-isopropyl-10-methoxy-2-oxo-9-(2,2,2-trifluoroethoxy)-6,7-dihydrobenzo[a]quinolizine-3-carboxylic acid] |  | 8 nM
20 | COCCOc1cc2c(cc1OC)-c1cc(=O)c(C(=O)O)cn1C(C(C)C)C2 (single isomer, unassigned; (+)) [Example 129, (+)-6-isopropyl-10-methoxy-9-(2-methoxyethoxy)-2-oxo-6,7-dihydrobenzo[a]quinolizine-3-carboxylic acid] |  | 12 nM
21 | COCCCOc1cc2c(cc1OC)-c1cc(=O)c(C(=O)O)cn1C(C(C)(C)C)C2 (single isomer, unassigned; (+)) [Example 132, (+)-6-tert-butyl-10-methoxy-9-(3-methoxypropoxy)-2-oxo-6,7-dihydrobenzo[a]quinolizine-3-carboxylic acid] |  | 1 nM
22 | COCCOc1cc2c(cc1OC)-c1cc(=O)c(C(=O)O)cn1C(C1(C)CC1)C2 (single isomer, unassigned; (+)) [Example 135, (+)-10-methoxy-9-(2-methoxyethoxy)-6-(1-methylcyclopropyl)-2-oxo-6,7-dihydrobenzo[a]quinolizine-3-carboxylic acid] |  | 4 nM
23 | COCCCOc1cc2c(c(Cl)c1F)-c1cc(=O)c(C(=O)O)cn1C(C(C)C)C2 (single isomer, unassigned; (+)) [Example 138, (+)-11-chloro-10-fluoro-6-isopropyl-9-(3-methoxypropoxy)-2-oxo-6,7-dihydrobenzo[a]quinolizine-3-carboxylic acid] |  | 9 nM
